Where two headings read alike, the source gives them in different places. Marks after values point to notes of the source that are not given here.
Legend:
AChE [1] = settings: cited from earlier work
BuChE [2] = settings: read-out: IC50 ± S.D BuChE; cited from earlier work
AChE [3] = biological target: T1, AChE (Musca domestica, UniProt Q7YWJ9); assay: Kinetic analysis of AChE inhibition (substrate ATCh); assay type: biochemical, fly; settings: substrate
Excerpt: (A and B) The reciprocals of the initial reaction rates and substrate concentrations are plotted. (C and D) The slope values of the lines from graph A or C are plotted versus the inhibitor concentration, affording an equation of linear regression.

BuChE [4] = biological target: T2, BuChE (Equus caballus, UniProt P81908); assay: BuChE inhibition, Ellman's method; assay type: biochemical, horse; settings: read-out: IC50 ± S.D BuChE
T2 construct: BuChE (E.C. 3.1.1.8) (BR, 20 u/mg) from horse serum; purchased Shanghai Yuanye biological technology Co. Ltd (Shanghai, China); host or cells: horse serum (tissue-derived)
Excerpt: There is increasing recognition that BuChE may play an important role in cholinergic transmission[15],[16]. While the level of AChE decreases dramatically in the advanced stage of AD, BuChE increases in brain regions involved in cognitive functions[17],[18]. At this point, BuChE is able to compensate for AChE loss by hydrolyzing ACh. These observations lead one to believe that inhibition of both AChE and BuChE may contribute to improvement of current symptomatic treatments of AD. Therefore, the compounds in Table 2 were also evaluated for BuChE inhibition activity by means of Ellman’s method. […] AChE (E.C. 3.1.1.7) (BR, 200 u/mg) from fly’s head and BuChE (E.C. 3.1.1.8) (BR, 20 u/mg) from horse serum were purchased from Shanghai Yuanye biological technology Co. Ltd (Shanghai, China).
(§1) The inhibitory activities of the compounds against AChE were evaluated according to Ellman’s coupled enzyme assay[47] with the following modifications. 90 μL potassium phosphate buffer (PBS, 0.1 M, pH 7.4), 10 μL the solution of 2 units/mL AChE in 0.1 M PBS (pH 7.4) and 10 μL the solution of 200 μM test compounds in the mixed solution of methanol-PBS (pH 7.4) (1:9, V/V) were added to each well of a 96-well plate. The methanol-PBS solution was used as a blank control. After incubation at room temperature for 10 min, 60 μL the solution of 10 mM DTNB in PBS was added into each the well. The plate was placed on crushed ices and cooled for 20 min. To each the well was added 30 μL the solution of 7.5 mM ATCh in PBS (pH 7.4). […] Each test was performed in triplicate. Inhibition rates of the enzyme were calculated relative to a control sample. The inhibitory activities against BuChE were measured as described above for AChE, using 0.7 unit/mL BuChE and 4 mM BuTCh instead of AChE and ATCh as the enzyme and substrate, respectively.
(§2) The probit value of the average inhibition rate for each test concentration and the corresponding lg[concentration] were used to establish enzyme inhibition regression equation by the linear least-square fitting method. IC50 values were calculated from the equations.

AChE [5] = biological target: T1, AChE; assay: biochemical; assay type: biochemical, fly; settings: for IC50: read-out: IC50 ± S.D AChE; for Inhibition rate (%): test concentration of the compound 10 μM
Procedure: AChE (E.C. 3.1.1.7) (BR, 200 u/mg) from fly’s head and BuChE (E.C. 3.1.1.8) (BR, 20 u/mg) from horse serum were purchased from Shanghai Yuanye biological technology Co. Ltd (Shanghai, China).
as §1, §2

T1 sequence (Q7YWJ9 81-659): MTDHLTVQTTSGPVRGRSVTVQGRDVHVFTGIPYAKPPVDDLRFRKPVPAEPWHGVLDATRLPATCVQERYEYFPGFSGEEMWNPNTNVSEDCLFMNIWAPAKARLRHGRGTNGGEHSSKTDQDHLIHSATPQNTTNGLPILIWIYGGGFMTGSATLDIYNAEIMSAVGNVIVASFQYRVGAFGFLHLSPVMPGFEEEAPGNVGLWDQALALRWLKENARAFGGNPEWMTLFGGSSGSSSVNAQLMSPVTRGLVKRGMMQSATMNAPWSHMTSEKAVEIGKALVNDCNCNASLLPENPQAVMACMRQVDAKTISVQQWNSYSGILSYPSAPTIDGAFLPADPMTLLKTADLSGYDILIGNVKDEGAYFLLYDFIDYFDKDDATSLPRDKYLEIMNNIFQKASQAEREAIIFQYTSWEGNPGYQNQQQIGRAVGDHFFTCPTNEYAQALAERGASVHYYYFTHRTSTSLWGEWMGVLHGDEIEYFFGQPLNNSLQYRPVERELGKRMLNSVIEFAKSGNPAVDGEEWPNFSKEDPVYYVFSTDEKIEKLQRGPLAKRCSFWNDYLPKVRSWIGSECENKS
T2 sequence (P81908 whole entry): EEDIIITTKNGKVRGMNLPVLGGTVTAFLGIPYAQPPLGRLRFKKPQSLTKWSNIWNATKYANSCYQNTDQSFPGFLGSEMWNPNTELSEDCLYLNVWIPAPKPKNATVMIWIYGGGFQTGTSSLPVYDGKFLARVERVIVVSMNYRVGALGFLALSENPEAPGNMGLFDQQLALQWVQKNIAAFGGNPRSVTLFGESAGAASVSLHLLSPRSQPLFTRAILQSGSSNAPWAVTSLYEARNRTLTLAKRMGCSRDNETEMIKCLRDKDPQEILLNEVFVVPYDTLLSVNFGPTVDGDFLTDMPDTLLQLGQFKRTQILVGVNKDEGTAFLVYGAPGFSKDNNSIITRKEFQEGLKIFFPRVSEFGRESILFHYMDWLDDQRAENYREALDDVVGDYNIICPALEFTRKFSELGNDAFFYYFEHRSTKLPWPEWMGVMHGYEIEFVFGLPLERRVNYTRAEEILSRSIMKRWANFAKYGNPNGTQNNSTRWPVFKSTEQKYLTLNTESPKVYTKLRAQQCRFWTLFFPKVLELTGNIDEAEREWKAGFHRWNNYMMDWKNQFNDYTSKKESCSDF

Structure (SMILES) | SI: selectivity index, IC50 (BuChE)/IC50 (AChE) (AChE [1]) | IC50 (AChE [1]; read-out: IC50 ± S.D AChE) [µM] | IC50 (BuChE [2]) [µM] | Km (AChE [3]) [µM] | IC50 (BuChE [4]) [µM] | SI: selectivity index, ratio IC50 (BuChE)/IC50 (AChE) (AChE [5]) | IC50 (AChE [5]) [µM] | Inhibition rate (%) (AChE [5]) | IC50 (AChE [1]; inhibitor co-crystallised with AChE (PDB 4BDT), reference not given, read-out: IC50 AChE) [µM]
CC(=O)SCC[N+](C)(C)C [acetylthiocholine iodide, Acetylthiocholine iodide, reference compound] |  |  |  | 163 |  |  |  |  | 
Cn1c2ccccc2c2cc[n+](-c3cccc(I)c3)cc21.[Br-] [Compound B12, 9-Methyl-2-(3-iodohenyl)-β-carboline bromide] |  |  |  |  | 21.1 ± 0.46 | 1.90 | 11.1 ± 1.34 | 56.4 ± 5.9 no % | 
Cn1c2c(c3ccccc31)CC[N+](c1ccc(Cl)cc1)=C2.[Br-] [Compound A7] |  |  |  |  | 42.2 ± 0.86 | 5.57 | 7.58 ± 1.29 | 60.1 ± 2.9 d % | 
Cn1c2c(c3ccccc31)CC[N+](c1ccc(Br)cc1)=C2.[Br-] [Compound A10] |  |  |  |  | 76.2 ± 11 | 11.2 | 6.79 ± 2.29 | 60.3 ± 1.6 d % | 
Cn1c2c(c3ccccc31)CC[N+](c1ccc(O)cc1)=C2.[Br-] [Compound A16] |  |  |  |  | 28 ± 2.88 | 9.96 | 2.81 ± 0.22 | 64.3 ± 0.3 cd % | 
Cc1ccccc1-[n+]1ccc2c3ccccc3n(C)c2c1.[Br-] [Compound B20, 9-Methyl-2-(2-methylphenyl)-β-carboline bromide] |  |  |  |  | 154 ± 9.1 | 15.9 | 9.71 ± 0.55 | 59.6 ± 3.2 n % | 
CCCn1c2c(c3ccccc31)CC[N+](c1ccccc1)=C2.[Br-] [Compound A39] |  |  |  |  | 13 ± 0.62 | 2.27 | 5.72 ± 0.66 | 67.1 ± 2.4 c % | 
Nc1c2c(nc3cc(Cl)ccc13)C[C@H]1C=C(CCO)C[C@@H]2C1 [huprine W] |  |  |  |  |  |  |  |  | 0.0011
Cn1c2ccccc2c2cc[n+](-c3ccc(Br)cc3F)cc21.[Br-] [Compound B32, 9-Methyl-2-(2-fluoro-4-bromophenyl)-β-carboline bromide] |  |  |  |  | 116 ± 18.2 | 385.0 |  | 92.8 ± 1.0 abc % | 
Cn1c2ccccc2c2cc[n+](-c3cccc(O)c3)cc21.[Br-] [Compound B15, 9-Methyl-2-(3-hydroxyhenyl)-β-carboline bromide] |  |  |  |  | 29.6 ± 2.48 | 7.60 | 3.92 ± 0.3 | 72.1 ± 1.8 l % | 
Cn1c2ccccc2c2cc[n+](-c3ccc(Br)cc3)cc21.[Br-] [Compound B10, 9-Methyl-2-(4-bromophenyl)-β-carboline bromide] |  |  |  |  | 55.4 ± 1.73 | 128.8 | 0.43 ± 0.04 | 95.4 ± 0.8 ab % | 
CCn1c2c(c3ccccc31)CC[N+](c1ccccc1)=C2.[Br-] [Compound A38] |  |  |  |  | 10.4 ± 0.4 | 2.82 | 3.69 ± 0.4 | 76.6 ± 3.7 a % | 
Cn1c2ccccc2c2cc[n+](-c3cccc(C#N)c3)cc21.[Br-] [Compound B24, 9-Methyl-2-(3-cyanophenyl)-β-carboline bromide] |  |  |  |  | 212 ± 17.4 | 20.6 | 10.3 ± 0.6 | 50.7 ± 2.2 pq % | 
Cn1c2c(c3ccccc31)CC[N+](c1ccccc1)=C2.[Br-] [Compound A1] |  |  |  |  | 10.1 ± 1.66 | 0.54 | 18.6 ± 2.93 | 40.9 ± 2.1 ij % | 
C1=[N+](c2ccccc2)CCc2c1[nH]c1ccccc21.[Br-] [Compound A46] |  |  |  |  | 3.9 ± 0.53 |  | 18.2 ± 1.97 | 41.3 ± 1.4 ij % | 

From paper PMC5784158, “New 2-Aryl-9-methyl-β-carbolinium salts as Potential Acetylcholinesterase Inhibitor agents: Synthesis, Bioactivity and Structure–Activity Relationship” (Scientific Reports, 2018)
